Laboratory results as given in patent US6559125B1, “Polyamide-alkylator conjugates and related products and method” (priority 2000, dated 2003).

Legend:
[1] = water, pH 7.5, 37° C.; cited from earlier work
DNA = conditions: from previous reports; cited from earlier work
[2] = tested on: match binding sites (5′-WGCWGCW-3′) on a 241 bp restriction fragment derived from the HIV-1 promoter region; assay: Quantitative DNase I footprint titration; conditions: for equilibrium association constant Ka: 22° C., pH 7.0
Experimental: Jones, K. A. & Peterlin, B. M. (1994), Annual Review of Biochemistry 63, 717-743. Left, storage phosphor autodiograms of 8% denaturing polyacrylamide gels used to separate the fragments generated by DNase I digestion. All reactions contained 20,000 cpm restriction fragment, 10 mM Tris.HCl (pH 7.0), 10 mM KCl, 10 MM MgCl2 and 5 mM CaCl and were performed at 22° C. Lane 1, intact DNA; lane 2, A-specific reaction; lane 3, G-specific reaction; lane 4, DNase I standard; lanes 5-17, 1 pM, 2 pM, 5 pM, 10 pM, 20 pM, 50 pM, 100 pM, 200 pM, 500 pM, 1 nM, 2 nM, 5 nM, 10 nM, respectively. The 5′-AGCTGCT-3′ (A), 5′-TGCAGCA-3′ (B), and 5′-TGCTGCT-3′ (E) match sites are shown in boxes on the right side of the autoradiogram (SEQ ID NO:4).
FIG. 5(b) depicts data from quantitative DNase I footprint titration experiments for ImPy-β-ImPy-(R)^CHL(OH)γ-ImPy-βImPy-β-Dp (3) binding to the 5′-AGCTGCT-3′ (A) and 5′-TGCAGCA-3′ sites (B). θnorm points were obtained using storage phosphor autoradiography and processed as described in the experimental section The data for the binding of 3 to 5′-AGCTGCT-3′ is indicated by red circles and binding to 5′-TGCAGCA-3′ by blue circles. The solid curves are best-fit Langmuir binding titration isotherms obtained from a nonlinear least-squares algorithm eq 2 (n=1).
All reactions were executed in a total volume of 400 μl. […]
Data from the footprint titration gels were obtained using a Molecular Dynamics 400S PhosphorImager followed by quantitation using ImageQuant software (Molecular Dynamics). […] The apparent fractional occupancy (θapp) of the sites were calculated using the equation: [formula] […]
where [L]tot is the total polyamide concentration, Ka is the equilibrium association constant, and θmin and θmax are the experimentally determined site saturation values when the site is unoccupied or saturated, respectively. […]

[3] = tested on: match binding sites (5′-WGCWGCW-3′) on a 241 bp restriction fragment derived from the HIV-1 promoter region; conditions: sequence 5′-WGCWGCW-3′ in the HIV promoter; literature value; cited from earlier work
HIV = conditions: cell culture; cited from earlier work

Compound: O=C(O)CCCc1ccc(N(CCCl)CCCl)cc1 [chlorambucil, 4-[bis(2-chloroethyl)amino]benzene butanoic acid]
- half life for hydrolysis of the bis(dichloroethylamino)benzene moiety [1]: approximately 1.3 hours

Compound: ImImPyPy-(R)^H^2^Nγ-ImPyPyPy-β-Dp [polyamide 1′]
- binding affinity (DNA): subnanomolar

Compound: ImPy-β-ImPy-(R)^CHL(OH)γ-ImPy-β-ImPy-β-Dp [compound 3]
- equilibrium association constant Ka ([2]; match site 5′-AGCTGCT-3′): 1.6±0.7×10^10 M^−1
- equilibrium association constant Ka ([2]; match site 5′-TGCAGCA-3′): 1.3±0.7×10^10 M^−1
- affinities for double base pair mismatch sites, fold lower than for the match sites ([2]; mismatch sites 5′-TGTCGCC-3′ and 5′-AGCAGCTC-3′): > 100 fold

Compound: ImPy-β-ImPy-γ-ImPy-β-ImPy-β-Dp [polyamide 1]
- binding affinity Ka of unsubstituted polyamide [3]: 2e+10 M⁻¹
- inhibition of HIV replication (HIV): inhbit HIV replication
